US20260364079A1 (Principia Biopharma Inc., priority 2022, published 2026)

Assays:
Fc receptor signaling = experiment: in vitro antibody (IgG, IgE) mediated activation of immune cells via Fc receptor signaling; format: cell-based
251 kinases = experiment: broad kinase enzyme inhibition panel; format: biochemical; details: 1 μM; of 251 kinases
Pemphigus foliaceus = experiment: treatment of dogs with newly diagnosed, naturally occurring Pemphigus foliaceus; format: in vivo

## CC(C)(C=C(C#N)C(=O)N1CCC[C@@H](n2nc(-c3ccc(Oc4ccccc4)cc3F)c3c(N)ncnc32)C1)N1CCN(C2COC2)CC1 (mixture of isomers) [rilzabrutinib, (R)-2-[3-[4-amino-3-(2-fluoro-4-phenoxy-phenyl)pyrazolo[3,4-d]pyrimidin-1-yl]piperidine-1-carbonyl]-4-methyl-4-[4-(oxetan-3-yl)piperazin-1-yl]pent-2-enenitrile]
Fc receptor signaling
  antibody (IgG, IgE) mediated activation of immune cells via Fc receptor signaling: blocks antibody (IgG, IgE) mediated activation of immune cells via Fc receptor signaling
251 kinases
  number of kinases with >90% inhibition: 6 kinases
Pemphigus foliaceus
  cases with disease safely controlled without the need for corticosteroid: 4 of 4
